Assay results from ChEMBL document CHEMBL5726800, “Indazole and azaindazole Btk inhibitors” (2019).
pIC50: −log10 of the molar value.

What was measured:
[1] = target: T1, Tyrosine-protein kinase BTK (Homo sapiens, UniProt Q06187); experiment: 25P Btk Enzyme Activity Assay: Btk enzymatic activity was determined with the LANCE (Lanthanide Chelate Excite) TR-FRET (lime-resolved fluorescence resonance energy transfer) assay. […] To each well of a black non-binding surface Corning 384-well microplate (Corning Catalog #3820), 5 nL of compound (2000 fold dilution in final assay volume of 10 μL) was dispensed, followed by the addition of 7.5 μL of 1× kinase buffer (50 mM Hepes 7.5, 10 mM MgCl2, 0.01% Brij-35, 1 mM EGTA, 0.05% BSA and 1 mM DTT) containing 26.67 pg/μL (266.7 pM) of 25P Btk enzyme (recombinant protein from baculovirus-transfected Sf9 cells: full-length Btk; MW=79378 Da). Following a 60 minute compound and enzyme incubation, each reaction was initiated by the addition of 2.5 μL 1× kinase buffer containing 8 μM biotinylated “A5” peptide (Biotin-EQEDEPEGDYFEWLE-NH2), and 100 μM ATP. The final reaction in each well of 10 consists of 200 pM 25P Btk, 2 μM biotin-A5-peptide, and 25 μM ATP. Phosphorylation reactions were allowed to proceed for 120 minutes. Reactions were immediately quenched by the addition of 20 uL of 1× quench buffer (15 mM EDTA, 25 mM Hepes 7.3, and 0.1% Triton X-100) containing detection reagents (0.626 nM of LANCE-Eu-W1024-anti-phosphoTyrosine antibody, PerkinElmer and 86.8 nM of Streptavidin-conjugated Dylight 650, Dyomics/ThermoFisher Scientific). […]
T1 sequence (Q06187 whole entry): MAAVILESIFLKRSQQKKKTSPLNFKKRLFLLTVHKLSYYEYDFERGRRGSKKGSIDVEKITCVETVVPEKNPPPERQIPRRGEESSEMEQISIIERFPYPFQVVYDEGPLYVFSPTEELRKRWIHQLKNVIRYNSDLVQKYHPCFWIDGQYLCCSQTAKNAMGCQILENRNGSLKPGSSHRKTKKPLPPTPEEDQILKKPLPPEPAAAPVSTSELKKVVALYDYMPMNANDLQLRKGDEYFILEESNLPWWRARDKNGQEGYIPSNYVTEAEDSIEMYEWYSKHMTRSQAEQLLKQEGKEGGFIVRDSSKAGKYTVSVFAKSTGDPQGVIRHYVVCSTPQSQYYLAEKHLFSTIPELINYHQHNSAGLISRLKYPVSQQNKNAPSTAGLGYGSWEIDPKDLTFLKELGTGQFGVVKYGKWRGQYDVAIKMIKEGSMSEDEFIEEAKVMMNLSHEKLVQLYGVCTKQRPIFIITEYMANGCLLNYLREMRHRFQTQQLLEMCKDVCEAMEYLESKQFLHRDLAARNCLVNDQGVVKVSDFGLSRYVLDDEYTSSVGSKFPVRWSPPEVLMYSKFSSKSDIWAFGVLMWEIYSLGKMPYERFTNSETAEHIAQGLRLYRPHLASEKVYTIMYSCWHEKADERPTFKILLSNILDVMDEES

[2] = target: T1, Tyrosine-protein kinase BTK; experiment: 100P Btk Enzyme Activity Assay: Btk enzymatic activity was determined with the LANCE (Lanthanide Chelate Excite) TR-FRET (lime-resolved fluorescence resonance energy transfer) assay. […] To each well of a black non-binding surface Corning 384-well microplate (Corning Catalog #3820), 5 nL of compound (2000 fold dilution in final assay volume of 10 μL) was dispensed, followed by the addition of 7.5 μL of 1× kinase buffer (50 mM Hepes 7.5, 10 mM MgCl2, 0.01% Brij-35, 1 mM EGTA, 0.05% BSA & 1 mM DTT) containing 13.3 pg/μL (133.3 pM) of 100P Btk enzyme (recombinant protein from baculovirus-transfected Sf9 cells: full-length Btk; MW=79378 Da). Following a 60 minute compound and enzyme incubation, each reaction was initiated by the addition of 2.5 μL 1× kinase buffer containing 8 μM biotinylated “A5” peptide (Biotin-EQEDEPEGDYFEWLE-NH2) (SEQ.ID.NO.: 1) and 100 μM ATP. The final reaction in each well of 10 consists of 100 pM 100P Btk, 2 μM biotin-A5-peptide, and 25 μM ATP. Phosphorylation reactions were allowed to proceed for 45 minutes. Reactions were immediately quenched by the addition of 20 uL of 1× quench buffer (15 mM EDTA, 25 mM Hepes 7.3, and 0.1% Triton X-100) containing detection reagents (0.626 nM of LANCE-Eu-W1024-anti-phosphoTyrosine antibody, PerkinElmer and 86.8 nM of Streptavidin-conjugated Dylight 650, Dyomics/ThermoFisher Scientific). […]

## Cc1c(NC(=O)c2ccc(C(C)(C)C)cc2F)cccc1-c1cc(-c2cnn(C)c2)c2[nH]nc(N)c2c1
[1]
  pIC50: 7.62
[2]
  pIC50: ≤ 6.00
